Assays:
[1] = tested on: human fibroblasts; assay: In vitro incorporation of Cy3-crotamine in human fibroblasts; format: cell-based; conditions: after one hour of incubation, FIG. 2A
Description: (§1) Embrionary stem cells (ES) from mice, line USP-1 (Soukoyan, M. A., Kerkis, A. Y., Mello, M. R. B., Kerkis, I. E., Visintin, J. A., Pereira, L. V. (2002), Establishment of New Murine Embryonic Stem Cell Lines for the Generation of Mouse Models of Human Genetic Diseases, Braz. J. Med. Biol. Res. 35, 535-542) in the passage 8-10 were cultured on a layer of γ-irradiated embrionary fibroblasts of mice, kept in DMEM (Gibco, U.S.A.), supplemented with 15% FCS (Gibco, U.S.A.), 1 mM sodium piruvate, 1% non-essential amino acids, 0.1 mM β-mercaptoethanol and 1×103 U/ml murine Leukemia Inhibitor Factor (LIF) (ESGRO-LIF, Gibco). Human lymphoblastoids and primary fibroblasts were cultivated in DMEM and in RPMI, respectively, supplemented with 10% FCS with no antibiotics. Cultures were kept under humid atmosphere at 37° C. and 5% CO2.
(§2) In vitro assay: Semiconffluent cultures of pluripotent and differentiation ES cells (homogeneous cell population), as well as other cell cultures of normal and tumor origin, were kept in small laminar slides placed in 24-well plates containing appropriate culture medium. Cells were incubated for 2-3 minutes to 72 hours in the presence of Cy3-crotamine, under concentrations between 10 μM and 0.01 μM, or as control, just in the presence of the dye agent Cy3 diluted in 1 ml PBS (control). […]

[2] = tested on: Murine pluripotent embryonic stem cells; assay: In vitro incorporation of Cy3-crotamine in pluripotent embryonic stem cells; format: cell-based; conditions: FIG. 2D and E
Description: as §1, §2

[3] = tested on: linear and/or circular double strand DNA; assay: DNA-peptide interaction by agarose gel electrophoresis (gel shift assay); format: binding; conditions: various molar proportions, FIG. 6
Description: The interaction between crotamine and DNA was analysed by an interference assay for DNA migration in agarose gel. 1 μg DNA and an increasing concentration of crotamine was added in a total volume of 25 μl, containing 150 mM NaCl. Twenty minutes after the mixture was prepared, samples were analysed by agarose gel electrophoresis (1%), using Tris-borate-EDTA buffer, followed by visualization by staining the nucleic acid with the ethidium bromide.
The formation of the complex between the peptide and DNA was analysed by the electrophoretic mobility of the complex in agarose gel (1%, w/v) by varying the molar proportions between the peptide and the double-strand DNA. Tests were made by mixing plasmid DNA (2 or 4 μg) with 10 μg of pure crotamine, in the presence or absence of 150 mM NaCl, which were applied on agarose gel immersed in Tris borate-EDTA buffer. DNA was then observed after staining with ethidium bromide and using UV light transiluminator. Gel documentation after electrophoresis was made by using an image digitizer (model FLA3000). This system of electrophoresis allows to observe changes in the migration pattern (migration delay) due to the neutralization of nucleic acid by cationic peptide present and/or due to the formation of larger complexes between crotamine and DNA (FIG. 6). […]

[4] = tested on: human limfoblastoids, B16 murine melanoma cells, HCT116 colon cancer cells, human mesenchymal stem cells from bone marrow and dental pulp; assay: In vitro transfection with crotamine-DNA aggregates; format: cell-based
[5] = tested on: B16F10 cells; assay: Tumor treatment with natural crotamine; format: in vivo, Balb/c mouse
Description: The cells were maintained in Dulbecco's modified Eagle's cell culture medium (DMEM; Invitrogen, Carlsbad, Calif.) supplemented with 15% fetal calf serum (FCS; Invitrogen). The cells were kept at 37° C. with humidity and 5% CO2. After preparing a cell suspension with about 5×10^6 cells/ml of PBS [phosphate buffered solution], approximately 0.2 ml of this suspension was subcutaneously or endovenously (retroorbital injection) injected into each Balb/c mouse, of 4 to 6 weeks-old with body weight between 16 to 20 g. For negative control, the animals were injected with 0.2 ml of PBS. Before setting up the experiments, the animals were kept under 12 hour light-dark cycle, and were allowed to have water and food ad libitum. All animals were caged and handled under ethical conditions according to international rules of animal care, stated by the International Animal Welfare Recommendations, and in accordance with the Guidelines for the Use of Animals in Biochemical Research
30 minutes after endogenous injection of B16F10 cells, as described above, the animals were treated with 1 μg of crotamine/animal by daily subcutaneous injection, during 21 days.

YKQCHKKGGHCFPKEKICLPPSSDFGKMDCRWRWK CCKKGSG (YKQCHKKGGHCFPKEKICLPPSSDFGKMDCRWRWKCCKKGSG; UniProt Q9PWF3 23-64, looked up) [crotamine]
labeling of human fibroblasts [1]: intensively marked
signal on cell islets of pluripotent embryonic stem cells [2]: strong signal
effect of complex formation on electrophoretic mobility in agarose gel [3]: interfere in the electrophoretic mobility
result of in vitro transfection [4]: positive results
tumor positive animals, 18th day ([5]; 1 μg/animal daily s.c., day 18): 3
tumor positive animals, 20th day ([5]; 1 μg/animal daily s.c., day 20): 2
Total positive animals up to 21th day ([5]; 1 μg/animal daily s.c., days 10-21): 5 posit.
effect on tumor formation compared to the control group ([5]; 1 μg/animal daily subcutaneous injection, 21 days): delay or even inhibited the tumor formation
tumor positive animals, 25th day ([5]; observation after end of treatment, day 25): 9
tumor positive animals, 29th day ([5]; observation after end of treatment, day 29): 9
tumor positive animals, 35th day ([5]; observation after end of treatment, day 35): 12
tumor positive animals, 48th day ([5]; observation after end of treatment, day 48): 12
ratio of positives ([5]; up to day 21): 0.33

— patent US8278265B2, “Methods, kits and compositions comprising crotamine” (Fundacao de Amparo a Pesquisa do Estado de Sao Paulo—FAPESP, priority 2005, dated 2012)
